Measurements reported in ChEMBL document CHEMBL5528009, “Benzothiozinone derivatives with anti-tubercular Activity-Further side chain investigation” (Eur J Med Chem, 2024).
In brackets after ≈: the same amount, converted by molar mass. Activity calls are given as the source filed them. The calls are words filed in the database; no cut-off is given here.

Key:
[1] = test system: Mycobacterium tuberculosis; test: Antitubercular activity against Mycobacterium tuberculosis H37Rv (ATCC 25618) incubated for […] by MABA assay; type: functional
[2] = target: T1, Decaprenylphosphoryl-beta-D-ribose oxidase (Mycobacterium tuberculosis (strain ATCC 25618 / H37Rv)) (UniProt P9WJF1); test: Time-dependent covalent inhibition of recombinant Mycobacterium tuberculosis DprE1 expressed in Escherichia coli by Amplex Red/peroxidase coupled assay
T1 sequence (whole entry): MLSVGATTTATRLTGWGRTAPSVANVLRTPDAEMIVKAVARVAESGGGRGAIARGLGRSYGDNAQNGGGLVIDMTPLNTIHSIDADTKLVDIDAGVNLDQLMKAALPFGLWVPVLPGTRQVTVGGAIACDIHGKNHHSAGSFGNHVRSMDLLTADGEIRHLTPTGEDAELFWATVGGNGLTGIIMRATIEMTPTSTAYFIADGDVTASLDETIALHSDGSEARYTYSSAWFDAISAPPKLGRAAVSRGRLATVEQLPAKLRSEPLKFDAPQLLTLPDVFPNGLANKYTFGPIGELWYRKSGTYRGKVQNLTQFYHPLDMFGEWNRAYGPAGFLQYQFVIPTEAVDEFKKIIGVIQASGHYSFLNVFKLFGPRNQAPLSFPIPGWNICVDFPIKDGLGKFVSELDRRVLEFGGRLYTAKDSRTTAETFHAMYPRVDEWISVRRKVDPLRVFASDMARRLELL

HepG2 = test: Cytotoxicity against human HepG2 cells at 30 uM incubated for 48 hrs by CCK8 assay; type: toxicity, cell-based; conditions: hepg2, 48 h
[3] = Drug concentration in ICR mouse plasma at 5 micromol/kg, iv measured after 5 mins by LC-MS/MS analysis; type: ADME, organism-based; conditions: dose 5 µmol/kg
[4] = MRT in ICR mouse at 5 micromol/kg, iv measured after 24 hrs by LC-MS/MS analysis; type: ADME, organism-based; conditions: in vivo, dose 5 µmol/kg
[5] = Volume of distribution at steady state in ICR mouse at 5 micromol/kg, iv measured after 24 hrs by LC-MS/MS analysis; type: ADME, organism-based; conditions: in vivo, dose 5 µmol/kg, read-out: Vdss
[6] = Metabolic stability in NADPH-fortified mouse liver microsomes assessed as CYP450-mediated stability incubated for 120 mins by LC/MS analysis; type: ADME, Microsome; conditions: 2 h
[7] = Cmax in ICR mouse at 25 micromol/kg, po measured after 24 hrs by LC-MS/MS analysis; type: ADME, organism-based; conditions: in vivo, dose 25 µmol/kg
[8] = Oral bioavailability in ICR mouse at 25 micromol/kg measured after 24 hrs by LC-MS/MS analysis; type: ADME, organism-based; conditions: in vivo
[9] = Tmax in ICR mouse at 25 micromol/kg, po measured after 24 hrs by LC-MS/MS analysis; type: ADME, organism-based; conditions: in vivo, dose 25 µmol/kg
[10] = AUC (0 to 24 hrs) in ICR mouse at 25 micromol/kg, po by LC-MS/MS analysis; type: ADME, organism-based; conditions: in vivo, dose 25 µmol/kg
[11] = AUC (0 to 8 hrs) in ICR mouse at 5 micromol/kg, iv by LC-MS/MS analysis; type: ADME, organism-based; conditions: in vivo, dose 5 µmol/kg
[12] = Cytotoxicity against mouse hepatic stellate cells at 30 uM incubated for 48 hrs by CCK8 assay; type: toxicity, cell-based; conditions: hepatic stellate cell
[13] = target: T2, Decaprenylphosphoryl-beta-D-ribose oxidase (Mycobacterium tuberculosis (strain ATCC 25618 / H37Rv), UniProt P9WJF1); test: Inhibition of recombinant Mycobacterium tuberculosis DprE1 expressed in Escherichia coli measured after 120 mins by Amplex Red/peroxidase coupled assay
T2 sequence (P9WJF1 whole entry): T1 sequence (whole entry)

[14] = Metabolic stability in NADPH-fortified human liver microsomes assessed as CYP450-mediated stability incubated for 120 mins by LC/MS analysis; type: ADME, Microsome; conditions: 2 h
[15] = Protein binding in mouse plasma assessed as unbound fraction incubated for 24 hrs by equilibrium dialysis based LC/MS analysis; type: ADME, cell-free
[16] = Aqueous solubility of the compound in PBS buffer at pH 6.82 incubated for 4 hrs by HPLC analysis; type: physicochemical
[17] = Elimination half life in ICR mouse at 25 micromol/kg, po measured after 24 hrs by LC-MS/MS analysis; type: ADME, organism-based; conditions: in vivo, dose 25 µmol/kg, read-out: beta t1/2 (converted)
[18] = test system: Mycobacterium tuberculosis; test: Antitubercular activity against Mycobacterium tuberculosis H37Rv infected in BALB/c mouse assessed as log reduction in colony formation in lung at 50 mg/kg, po administered for 6 weeks; type: functional
[19] = Total plasma clearance in ICR mouse at 5 micromol/kg, iv measured after 24 hrs by LC-MS/MS analysis; type: ADME, organism-based; conditions: dose 5 µmol/kg
[20] = Elimination half life in ICR mouse at 5 micromol/kg, iv measured after 24 hrs by LC-MS/MS analysis; type: ADME, organism-based; conditions: in vivo, dose 5 µmol/kg, read-out: beta t1/2 (converted)
[21] = MRT in ICR mouse at 25 micromol/kg, po measured after 24 hrs by LC-MS/MS analysis; type: ADME, organism-based; conditions: in vivo, dose 25 µmol/kg

CN(CC#CCc1ccccc1)c1nc(=O)c2cc(C(F)(F)F)cc([N+](=O)[O-])c2s1
MIC [1]: 0.053 µM (≈ 0.023 µg/mL)
TDI [2]: Active

CN(CC#Cc1ccc(F)c(F)c1)c1nc(=O)c2cc(C(F)(F)F)cc([N+](=O)[O-])c2s1
MIC [1]: 0.013 µM (≈ 0.00592 µg/mL)

CN(C/C=C/C1CC1)c1nc(=O)c2cc(C(F)(F)F)cc([N+](=O)[O-])c2s1
MIC [1]: 0.023 µM (≈ 0.00886 µg/mL)

CN(CC#Cc1ccccc1)c1nc(=O)c2cc(C(F)(F)F)cc([N+](=O)[O-])c2s1
MIC [1]: 0.007 µM (≈ 0.00294 µg/mL)
Activity (HepG2): Non-Toxic
concentration at 5 min [3]: 13.5 µM
MRT [4]: 2.72 h
Vd [5]: 0.25 L/kg
Stability [6]: Stable
TDI [2]: Active
Cmax [7]: 1.29 µM
bioavailability ([8]; ICR, 25 µmol/kg): 4.49%
Tmax [9]: 0.9 h
AUC(0-t) ([10]; ICR): 5.16 µM·h
AUC(0-t) ([11]; ICR): 23.2 µM·h
Activity [12]: Non-Toxic
IC50 [13]: 23 nM
Stability [14]: Stable
Fu [15]: 0.25%
solubility at 4 h [16]: 0.8 µg/mL (≈ 1.91 µM)
half-life [17]: 2.95 h
Activity [18]: <1 log10CFU
clearance [19]: 1.5 mL/min/kg
half-life [20]: 1.77 h
MRT [21]: 4.35 h

CN(C/C=C\C1CC1)c1nc(=O)c2cc(C(F)(F)F)cc([N+](=O)[O-])c2s1
MIC [1]: 0.042 µM (≈ 0.0162 µg/mL)

CN(CC#CCN1CC[S+]([O-])CC1)c1nc(=O)c2cc(C(F)(F)F)cc([N+](=O)[O-])c2s1
MIC [1]: 1.05 µM (≈ 0.498 µg/mL)

CN(CC#Cc1cncs1)c1nc(=O)c2cc(C(F)(F)F)cc([N+](=O)[O-])c2s1
MIC [1]: 0.129 µM (≈ 0.055 µg/mL)

COc1cccc(C#CCN(C)c2nc(=O)c3cc(C(F)(F)F)cc([N+](=O)[O-])c3s2)c1
MIC [1]: 0.093 µM (≈ 0.0418 µg/mL)

CN(CC#CCN1CCOCC1)c1nc(=O)c2cc(C(F)(F)F)cc([N+](=O)[O-])c2s1
MIC [1]: 0.106 µM (≈ 0.0469 µg/mL)

CN(Cc1nnc(-c2ccccc2)o1)c1nc(=O)c2cc(S(C)(=O)=O)cc([N+](=O)[O-])c2s1
MIC [1]: 0.03 µM (≈ 0.0142 µg/mL)

CN1CCC(O)(C#CCN(C)c2nc(=O)c3cc(C(F)(F)F)cc([N+](=O)[O-])c3s2)CC1
MIC [1]: 16.9 µM (≈ 7.72 µg/mL)

CN(CC#CCN1CCS(=O)(=O)CC1)c1nc(=O)c2cc(C(F)(F)F)cc([N+](=O)[O-])c2s1
MIC [1]: 0.867 µM (≈ 0.425 µg/mL)

CN1CCN(CC#CCN(C)c2nc(=O)c3cc(C(F)(F)F)cc([N+](=O)[O-])c3s2)CC1
MIC [1]: 1.92 µM (≈ 0.876 µg/mL)

CN(CC#CC1CCCCC1)c1nc(=O)c2cc(C(F)(F)F)cc([N+](=O)[O-])c2s1
MIC [1]: 0.002 µM (≈ 0.000851 µg/mL)
TDI [2]: Active
IC50 [13]: 18 nM

CN(CC#Cc1ccc2c(c1)OCCO2)c1nc(=O)c2cc(C(F)(F)F)cc([N+](=O)[O-])c2s1
MIC [1]: 0.092 µM (≈ 0.0439 µg/mL)

CN(C/C=C/C1CCCC1)c1nc(=O)c2cc(C(F)(F)F)cc([N+](=O)[O-])c2s1
MIC [1]: 0.002 µM (≈ 0.000827 µg/mL)

CN(CC#CC(O)CN1CCCCC1)c1nc(=O)c2cc(C(F)(F)F)cc([N+](=O)[O-])c2s1 (stereo not given)
MIC [1]: 1.05 µM (≈ 0.493 µg/mL)

CN(CC#CCN1CCCCC1)c1nc(=O)c2cc(C(F)(F)F)cc([N+](=O)[O-])c2s1
MIC [1]: 0.127 µM (≈ 0.0559 µg/mL)

CN(CC#Cc1ccc(F)cc1)c1nc(=O)c2cc(C(F)(F)F)cc([N+](=O)[O-])c2s1
MIC [1]: 0.013 µM (≈ 0.00569 µg/mL)

CN(CC#CCN1CCCC1)c1nc(=O)c2cc(C(F)(F)F)cc([N+](=O)[O-])c2s1
MIC [1]: 0.378 µM (≈ 0.161 µg/mL)

CN(CC#CCN1CC2(COC2)C1)c1nc(=O)c2cc(C(F)(F)F)cc([N+](=O)[O-])c2s1
MIC [1]: 0.423 µM (≈ 0.192 µg/mL)

CN(CC#Cc1cscn1)c1nc(=O)c2cc(C(F)(F)F)cc([N+](=O)[O-])c2s1
MIC [1]: 0.028 µM (≈ 0.0119 µg/mL)
Activity (HepG2): Non-Toxic
concentration at 5 min [3]: 10.3 µM
MRT [4]: 1.05 h
Vd [5]: 0.59 L/kg
Stability [6]: Stable
Cmax [7]: 2.67 µM
F ([8]; po, 24 h, at 25 µmol/kg): 37.13%
Tmax [9]: 1 h
AUC ([10]; po): 18.99661 µM·h
AUC ([11]; iv): 4.66345 µM·h
Activity [12]: Non-Toxic
Stability [14]: Stable
Fu [15]: 0.65%
solubility at 4 h [16]: 12.8 µg/mL (≈ 30 µM)
half-life [17]: 4.77 h
Activity [18]: ~2 log10CFU
clearance [19]: 8.5 mL/min/kg
half-life [20]: 0.84 h
MRT [21]: 7.17 h
